Results reported in patent US20210106698A1, “LIVER-SPECIFIC MRI CONTRAST AGENT INCLUDING MANGANESE SILICATE NANOPARTICLES” (POSTECH ACADEMY-INDUSTRY FOUNDATION, priority 2017, published 2021).

Experiments:
[1] = T1 relaxation / T1-weighted image of HMS suspensions (3.0-T MR scanner); format: physicochemical; conditions: comparison value for free Mn2+
Protocol: The release profile of manganese ions from HMS was quantified at room temperature using 8 mg of HMS suspensions in 16 ml of citrate buffer at pH 5 and pH 6.2 and distilled water. 4 ml of each HMS suspensions was collected from samples at 15 minutes, 1 hour, 7 hours and 20 hours, and the nanoparticles (NPs) of the sample were removed by centrifugation at 15,000 rpm for 10 minutes, and each supernatant was filtered by using syringe filter with […] of pore size. The amount of each released manganese ion and the T1 relaxation time of the proton in each supernatant were quantified using ICP-AES and a 3.0-T clinical MR scanner (Philips, Achieva ver. 1.2, Philips Medical Systems, Best, The Netherlands).
The Mn release property and T1 contrast enhancing property of HMS prepared in Example 1-2 were tested according to Example 1-3.

[2] = T1-weighted MRI of supernatants with released Mn2+ ions (R1, r1); format: physicochemical; conditions: MnCl2 aqueous solution
Text: The contrast signal intensity of the photographed image was digitized (R1, unit=[…]), and shown in the graph of FIG. 9b. It is inferred that the released Mn^2+ ions can increase the contrast effect in T1-weighted image, on the basis that FIG. 9b is almost consistent with the graph of the release rate of Mn^2+ ions for each particle shown in FIG. 8e.
Next, the relationship between the concentration of Mn^2+ ions and the contrast intensity R1 of the image is shown in the graph of FIG. 9c. The slope of this graph is expressed as r1, and is a unique value for each material.

r1 value of free manganese ions [1]: 7.8 s⁻¹ mM⁻¹
r1 value for pure Mn^2+ ions [2]: about 7.4
SMILES: [Cl][Mn][Cl] [MnCl2]
